Assay results reported in patent publication US4620014A, “2-furylbutyrolactones and methods for using same” (priority 1983, dated 1986).
Read-outs that look alike come from different tables or passages of the source.

How the values were obtained:
L5178Y target cells = experiment: MLTC assay of CTL activity, L5178Y target cells; type: cell-based, mouse
Excerpt: A mixed lymphocyte tumor culture (MLTC) immunoassay, used to determine the cytotoxic lymphocyte (CTL) activity employs lymphocytes from either immunized (sensitized) mice or DBA/2 tumor dormant state animals in various stages of the tumor dormant state (TDS). The assay employs L5178Y target cells labeled with ^51 Chromium and effector cells (sensitized lymphocytes) from the above-mentioned sources. Effector-target cell ratios will vary with different experimental conditions and may or may not include irradiated stimulator L5178Y cells. Results are expressed as % lysis of target cells based on ratio of cpm of test group over cpm of total release (maximum) both of which are corrected for spontaneous release of ^51 Cr. The assay can be performed as an 8 or 18 hour release assay.
Ten days later the resultant tumor nodule, about 1 cm in size, is surgically excised. If the excision was successful, no subcutaneous tumors develop at the site of implantation. […] These mice are considered to be in the tumor dormant state.
The effect of Cpd. 1 on cytotoxic lymphocyte (CTL) activity is measured using five DBA/2 mice in the early stage of the TDS, 10 days after challenge with viable L5178Y tumor cells. Six doses of Cpd. 1, 0.001, 0.01, 0.1, 1.0, 10, or 100 μg/ml or just buffer are added in 100 μl volumes to MLTC microculture wells containing washed spleen lymphocytes from the DBA/2 mice, effector, and L5178Y target cells at varying E/T ratios. The MLTC reaction is performed in the presence or absence of irradiated L5178Y stimulator cells.
Five DBA/2 mice in the early stage of the TDS, 10 days after challenge with viable L5178Y tumor cells were used to measure the effect of Cpd. 1 on CTL activity. Two doses of Cpd. 1, 10, or 100 μg/ml, or just buffer were added in 100 μl volumes to the MLTC microculture wells containing washed spleen lymphocytes from the DBA/2 mice, effector and L5178Y target cells at varying E/T ratios. The MLTC reaction was performed in the presence or absence of irradiated L5178Y stimulator cells.
DBA/2 mice in the early stage of TDS, […] with viable L5178Y tumor cells, were used to measure the effect of Cpd. 2 on CTL activity. Cpd. 2, 0.1, 1.0, 10 or 100 μg/ml, or just buffer was added in 100 μl volumes to MLTC microculture wells containing washed spleen lymphocytes from DBA/2 mice, effector, and L5178Y target cells at varying E/T ratios. The MLTC reaction was performed in the presence or absence of irradiated L5178Y stimulator cells.
An MLTC assay is performed to assess the CTL activity and tumor target cell specificity of Cpd. 1. Tumor dormant spleen cells and normal spleen cells of DBA/2 mice are used as effector cells. Irradiated L5178Y cells are used as stimulator cells. ^51 Cr-labeled L5178Y cells and FLC-745 cells are used as target cells. The effector/target ratios studied are 100:1, 30:1 and 10:1.

[1] = system: antibody response to bovine serum albumin (BSA); settings: for stimulation of antibody response to BSA: day 13
Excerpt: The effect of the compounds of this invention on the immune response to specific antigens involves immunization of mice with specific anitgens such as bovine serum albumin (BSA) or keyhole limpet hemocyanin (KLH). Following immunization, it is possible to assess the cell-mediated or humoral (antibody) immune response to these antigens by various methods:
(2) Antibody response to soluble antigens such as BSA or KLH can be quantitated using a micro-ELISA solid phase heterogeneous immunoassay. The assay can be designed to quantitate class specific immunoglobulins (i.e., IgG or IgM).
The cut-off for the titer was the highest dilution of mouse serum yielding an O.D.≤0.1 when read on the MR-600 Dynatech micro-ELISA reader.
Mice of the C57BL/6 strain are given i.p. injections of either 50, 100, 200 or 400 mg/kg of Cpd. 1 or buffer for twelve days (days 1-12). An antigen, bovine serum albumin (BSA), is administered intraperitoneally with Freund's Complete Adjuvant (FCA) on days 1, 7 and 14. Blood samples are taken for assay of the antibody response on days 0, 5, 13, and 19.

`Cc1ccc(C2(O)C(=O)OC3C(O)COC32O)o1.Cc1ccc(C2(O)C(=O)OC3C(O)COC32O)o1.O=C1CCC(=O)O1` (stereo not drawn) [Cpd. 1] was tested, and the “% Lysis” value (L5178Y target cells; 0.001 μg/ml, E/T 10:1, TDS DBA/2, with stimulator cells) was 16.7%, the “% Lysis” value (L5178Y target cells; 0.001 μg/ml, E/T 10:1, TDS DBA/2, without stimulator cells) was 3.9% and the “% Lysis” value (L5178Y target cells; 0.001 μg/ml, E/T 30:1, TDS DBA/2, with stimulator cells) was 40.2%. The “% Lysis” value (L5178Y target cells; 0.001 μg/ml, E/T 30:1, TDS DBA/2, without stimulator cells) was 12.2%, the “% Lysis” value (L5178Y target cells; 0.001 μg/ml, E/T 100:1, TDS DBA/2, with stimulator cells) was 71.1% and the “% Lysis” value (L5178Y target cells; 0.001 μg/ml, E/T 100:1, TDS DBA/2, without stimulator cells) was 23.4%. The “% Lysis” value (L5178Y target cells; 0.01 μg/ml, E/T 10:1, TDS DBA/2, with stimulator cells) was 20.6%, the “% Lysis” value (L5178Y target cells; 0.01 μg/ml, E/T 10:1, TDS DBA/2, without stimulator cells) was 3.5% and the “% Lysis” value (L5178Y target cells; 0.01 μg/ml, E/T 30:1, TDS DBA/2, with stimulator cells) was 55.8%. For the same compound, the “% Lysis” value (L5178Y target cells; 0.01 μg/ml, E/T 30:1, TDS DBA/2, without stimulator cells) was 15.7%, the “% Lysis” value (L5178Y target cells; 0.01 μg/ml, E/T 100:1, TDS DBA/2, with stimulator cells) was 77.1% and the “% Lysis” value (L5178Y target cells; 0.01 μg/ml, E/T 100:1, TDS DBA/2, without stimulator cells) was 26.0%. The “% Lysis” value (L5178Y target cells; 0.1 μg/ml, E/T 10:1, TDS DBA/2, with stimulator cells) was 20.2%, the “% Lysis” value (L5178Y target cells; 0.1 μg/ml, E/T 10:1, TDS DBA/2, without stimulator cells) was 3.5% and the “% Lysis” value (L5178Y target cells; 0.1 μg/ml, E/T 30:1, TDS DBA/2, with stimulator cells) was 51.0%. The “% Lysis” value (L5178Y target cells; 0.1 μg/ml, E/T 30:1, TDS DBA/2, without stimulator cells) was 14.8%, the “% Lysis” value (L5178Y target cells; 0.1 μg/ml, E/T 100:1, TDS DBA/2, with stimulator cells) was 79.0% and the “% Lysis” value (L5178Y target cells; 0.1 μg/ml, E/T 100:1, TDS DBA/2, without stimulator cells) was 31.6%. For the same compound, the “% Lysis” value (L5178Y target cells; 1.0 μg/ml, E/T 10:1, TDS DBA/2, with stimulator cells) was 15.6%, the “% Lysis” value (L5178Y target cells; 1.0 μg/ml, E/T 10:1, TDS DBA/2, without stimulator cells) was 4.6% and the “% Lysis” value (L5178Y target cells; 1.0 μg/ml, E/T 30:1, TDS DBA/2, with stimulator cells) was 46.0%. The “% Lysis” value (L5178Y target cells; 1.0 μg/ml, E/T 30:1, TDS DBA/2, without stimulator cells) was 20.0%, the “% Lysis” value (L5178Y target cells; 1.0 μg/ml, E/T 100:1, TDS DBA/2, with stimulator cells) was 71.5% and the “% Lysis” value (L5178Y target cells; 1.0 μg/ml, E/T 100:1, TDS DBA/2, without stimulator cells) was 40.1%. For the same compound, the “% Lysis” value (L5178Y target cells; 10 μg/ml, E/T 6.25:1, TDS DBA/2, with stimulator cells) was 60.5%, the “% Lysis” value (L5178Y target cells; 10 μg/ml, E/T 6.25:1, TDS DBA/2, without stimulator cells) was “.7%” and the “% Lysis” value (L5178Y target cells; 10 μg/ml, E/T 10:1, TDS DBA/2, with stimulator cells) was 15.9%. The “% Lysis” value (L5178Y target cells; 10 μg/ml, E/T 10:1, TDS DBA/2, without stimulator cells) was 4.6%, the “% Lysis” value (L5178Y target cells; 10 μg/ml, E/T 12.5:1, TDS DBA/2, with stimulator cells) was 67.1% and the “% Lysis” value (L5178Y target cells; 10 μg/ml, E/T 12.5:1, TDS DBA/2, without stimulator cells) was 6.9%. The “% Lysis” value (L5178Y target cells; 10 μg/ml, E/T 25:1, TDS DBA/2, with stimulator cells) was 72.0%, the “% Lysis” value (L5178Y target cells; 10 μg/ml, E/T 25:1, TDS DBA/2, without stimulator cells) was 8.1% and the “% Lysis” value (L5178Y target cells; 10 μg/ml, E/T 30:1, TDS DBA/2, with stimulator cells) was 42.0%. For the same compound, the “% Lysis” value (L5178Y target cells; 10 μg/ml, E/T 30:1, TDS DBA/2, without stimulator cells) was 16.8%, the “% Lysis” value (L5178Y target cells; 10 μg/ml, E/T 50:1, TDS DBA/2, with stimulator cells) was 75.7% and the “% Lysis” value (L5178Y target cells; 10 μg/ml, E/T 50:1, TDS DBA/2, without stimulator cells) was 12.8%. The “% Lysis” value (L5178Y target cells; 10 μg/ml, E/T 100:1, TDS DBA/2, with stimulator cells) was 74.3%, the “% Lysis” value (L5178Y target cells; 10 μg/ml, E/T 100:1, TDS DBA/2, without stimulator cells) was 36.3% and the “% Lysis” value (L5178Y target cells; 100 μg/ml, E/T 6.25:1, TDS DBA/2, with stimulator cells) was 56.3%. For the same compound, the “% Lysis” value (L5178Y target cells; 100 μg/ml, E/T 6.25:1, TDS DBA/2, without stimulator cells) was 6.1%, the “% Lysis” value (L5178Y target cells; 100 μg/ml, E/T 10:1, TDS DBA/2, with stimulator cells) was 21.2% and the “% Lysis” value (L5178Y target cells; 100 μg/ml, E/T 10:1, TDS DBA/2, without stimulator cells) was 8.6%. For the same compound, the “% Lysis” value (L5178Y target cells; 100 μg/ml, E/T 12.5:1, TDS DBA/2, with stimulator cells) was 75.7%, the “% Lysis” value (L5178Y target cells; 100 μg/ml, E/T 12.5:1, TDS DBA/2, without stimulator cells) was 11.1% and the “% Lysis” value (L5178Y target cells; 100 μg/ml, E/T 25:1, TDS DBA/2, with stimulator cells) was 79.8%. The “% Lysis” value (L5178Y target cells; 100 μg/ml, E/T 25:1, TDS DBA/2, without stimulator cells) was 16.6%, the “% Lysis” value (L5178Y target cells; 100 μg/ml, E/T 30:1, TDS DBA/2, with stimulator cells) was 54.2% and the “% Lysis” value (L5178Y target cells; 100 μg/ml, E/T 30:1, TDS DBA/2, without stimulator cells) was 18.7%. The “% Lysis” value (L5178Y target cells; 100 μg/ml, E/T 50:1, TDS DBA/2, with stimulator cells) was 71.6%, the “% Lysis” value (L5178Y target cells; 100 μg/ml, E/T 50:1, TDS DBA/2, without stimulator cells) was 21.8% and the “% Lysis” value (L5178Y target cells; 100 μg/ml, E/T 100:1, TDS DBA/2, with stimulator cells) was 87.3%. For the same compound, the “% Lysis” value (L5178Y target cells; 100 μg/ml, E/T 100:1, TDS DBA/2, without stimulator cells) was 42.0%, the “% Lysis” value (L5178Y target cells; E + D (TDS effector, no stimulator), E/T 10:1) was 9.0% and the “% Lysis” value (L5178Y target cells; E + D (TDS effector, no stimulator), E/T 30:1) was 29.8%. For the same compound, the “% Lysis” value (L5178Y target cells; E + D (TDS effector, no stimulator), E/T 100:1) was 52.8%, the “% Lysis” value (L5178Y target cells; E + S + D (TDS effector, stimulator), E/T 10:1) was 34.9% and the “% Lysis” value (L5178Y target cells; E + S + D (TDS effector, stimulator), E/T 30:1) was 69.2%. The “% Lysis” value (L5178Y target cells; E + S + D (TDS effector, stimulator), E/T 100:1) was 82.3%, the “% Lysis” value (L5178Y target cells; N + D (normal effector, no stimulator), E/T 10:1) was -10.3% and the “% Lysis” value (L5178Y target cells; N + D (normal effector, no stimulator), E/T 30:1) was -11.4%. For the same compound, the “% Lysis” value (L5178Y target cells; N + D (normal effector, no stimulator), E/T 100:1) was -12.4%, the “% Lysis” value (L5178Y target cells; N + S + D (normal effector, stimulator), E/T 10:1) was -10.9% and the “% Lysis” value (L5178Y target cells; N + S + D (normal effector, stimulator), E/T 30:1) was -9.7%. For the same compound, the “% Lysis” value (L5178Y target cells; N + S + D (normal effector, stimulator), E/T 100:1) was -9.5%, the “CTL activity of effector cells” value (L5178Y target cells; in the presence of stimulator cells (Example 28)) was “significant specific enhancement of CTL activity” and the CTL activity (L5178Y target cells; several concentrations, any E/T ratio, with or without stimulator cells, TDS) was “significant increase in CTL activity”. For the same compound, the “Micro-ELISA Titer” value ([1]; 50 mg/kg i.p., day 5) was “N/R”, the “Micro-ELISA Titer” value ([1]; 50 mg/kg i.p., prebleed) was “N/R” and the “antibody titer over the control” value ([1]; 50 mg/kg, day 19) was “slight increase”. The “Micro-ELISA Titer” value ([1]; 100 mg/kg i.p., day 5) was “N/R”, the “Micro-ELISA Titer” value ([1]; 100 mg/kg i.p., prebleed) was “N/R” and the “Micro-ELISA Titer” value ([1]; 200 mg/kg i.p., day 5) was “N/R”. For the same compound, the “Micro-ELISA Titer” value ([1]; 200 mg/kg i.p., prebleed) was “N/R”, the “Micro-ELISA Titer” value ([1]; 400 mg/kg i.p., day 5) was “N/R” and the “Micro-ELISA Titer” value ([1]; 400 mg/kg i.p., prebleed) was “N/R”. The “stimulation of antibody response to BSA” value ([1]; 50 and 100 mg/kg) was “slight amount of stimulation”, the “increase of antibody response to BSA over controls” value ([1]; 100 and 200 mg/kg, day 19) was 16 fold and the “stimulation of antibody response to BSA” value ([1]; 200 and 400 mg/kg) was “significant (four-fold) stimulation”.
